# Tests used:
# hMAO B = biological target: T1, hMAO B (Homo sapiens, UniProt P27338); assay: hMAO B reversibility studies; type: biochemical; details: inhibitor at IC80; without preincubation; compared with safinamide and rasagiline
# T1 construct: purchased Sigma Aldrich M7441
# T1 sequence (P27338 1-520): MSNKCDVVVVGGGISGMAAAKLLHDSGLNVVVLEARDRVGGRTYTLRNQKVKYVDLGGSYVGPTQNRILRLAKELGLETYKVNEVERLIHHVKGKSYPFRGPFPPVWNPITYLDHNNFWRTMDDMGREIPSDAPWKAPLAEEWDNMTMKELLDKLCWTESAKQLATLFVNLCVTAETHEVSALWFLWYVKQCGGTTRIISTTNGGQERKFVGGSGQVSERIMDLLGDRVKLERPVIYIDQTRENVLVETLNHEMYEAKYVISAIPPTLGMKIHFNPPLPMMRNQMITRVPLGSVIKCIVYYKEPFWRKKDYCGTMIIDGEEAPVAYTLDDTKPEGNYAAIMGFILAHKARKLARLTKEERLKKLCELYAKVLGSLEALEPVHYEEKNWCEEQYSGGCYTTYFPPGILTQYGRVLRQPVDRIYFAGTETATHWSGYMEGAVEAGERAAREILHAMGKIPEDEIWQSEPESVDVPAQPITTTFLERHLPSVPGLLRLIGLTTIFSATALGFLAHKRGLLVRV
# Method: Reversibility of MAO B inhibitors was tested as described previously with slight modification. Two experiments were performed simultaneously. In the first experiment, inhibitors (in concentrations corresponding to their IC80 values) were incubated with the enzyme and p-tyramine (10 μM) for 22 min (measuring fluorescence every two minutes).
# [1] = system: neuroblastoma SH-SY5Y cells; assay: neuroprotection in H2O2-treated SH-SY5Y cells (MTS); type: cell-based; details: H2O2 300 µM, 24 h
# Method: The used reference cytostatic drug doxorubicin (DX) decreased cell viability <50% under the same conditions at very low concentrations of 0.2 and 0.05 µM. […] Oxidative damage was induced by very high toxic levels of hydrogen peroxide (H2O2; 300 µM), the popular cell model for PD research, in neuroblastoma SH-SY5Y cell line. […] Salsolinol (SAL) was used at a concentration of 50 µM as the reference compound with the proven neuroprotection activity.
# SH-SY5Y cells were seeded in microplate at a concentration of 2.5 × 10^4 cells/well in 100 μL culture medium and cultured for 24 h at 37 C and 5% CO2 to reach 70% confluence. […] (R,S)-salsolinol (purity ≥ 99%) was obtained from Cayman Chemical (Ann Arbor, MI, USA). Next, H2O2 was added at final concentration 300 μM and the cells were placed into the incubator. After 24 h of compounds co-incubation with H2O2, the CellTiter 96®AQueous Non-Radioactive Cell Proliferation Assay (MTS) labeling mixture was added to each well, and the microplates were incubated under the same conditions for 5 h. The absorbance was measured using a microplate reader EnSpire (PerkinElmer, Waltham, MA USA) at 490 nm. All measurements were performed in triplicate, and results are shown as mean ± SD.
# [2] = system: haloperidol-induced catalepsy; assay: haloperidol-induced catalepsy, bar test; type: in vivo, Wistar rats; details: for Times of Observation of Catalepsy (s), 0 min / Times of Observation of Catalepsy (s), 3 min / Times of Observation of Catalepsy (s), 6 min: mean ± SEM (n = 6)
# Method: Haloperidol (dopamine D2 antagonist)-induced catalepsy in rodents is a popular model for screening of antiparkinsonian activity of compounds [21]. Caused symptoms in animals are similar to the inability of PD patients to initiate movements. […] The reversal of catalepsy was tested for 6 min (3 times in 3 min intervals) after 1 h of haloperidol administration. As the reference compound was used MSX-3, the adenosine A2A receptor antagonist with confirmed ability to reverse catalepsy mediated by D1 and D2 receptor antagonists.
# Haloperidol-induced catalepsy was not reduced by DL-76 administrated at a dose of 25 mg/kg body weight (Table 3). After administration of DL-76 at a dose of 50 mg/kg body weight, low antiparkinsonian activity in the bar test was observed. […] This effect was weaker than the anti-Parkisonian activity of MSX-3.
# The experiments were carried out on male rats Wistar (180–220 g). Animals were housed in plastic cages in room at a constant temperature of 20 ± 2 °C with natural light–dark cycles. The animals had free access to standard pellet diet and water and were used after a minimum of 3 days of acclimatization to the housing conditions. Control and experimental groups consisted of 6 animals each. All experimental procedures were performed according to the European Union Directive of 22 September 2010 (2010/63/EU) and Polish legislation concerning animal care and use and was approved by the Local Ethics Committee for Experiments on Animals in Kraków, Poland (Resolution No. 70/2014, approval date: 20 May 2014). The examined compound was administered as the suspension in 0.5% methylcellulose in constant volume of 10 mL/kg.
# Antiparkinsonian activity in catalepsy tests was performed as described in [28]. Haloperidol was administered s.c. at a dose of 0.63 mg/kg, which in 100% of control animals caused catalepsy. Tested compounds were administered i.p. at the doses 50 and 25 mg/kg body weight, 5 min after haloperidol injection. After 60 min from the injection of haloperidol, to assess the occurrence of catalepsy, the animals were placed in a forced position and the time they remained in this position was measured. Two tests were performed to determine the antiparkinsonian activity: crossed leg position test and bar test. In the first test, the animals were put on the hind paws behind the front (forced position); in the second, the animals were supported on a wooden block (the front paws were placed on a block suspended 10 cm above the ground). Then, the time that the animals remain is measured in a forced position (time was measured to a maximum of 60 s). Observation was carried out 3 times in 3-min intervals. The shortening of the time of catalepsy to the control group was adopted for the antiparkinsonian activity.
structure (smiles),measurement,setting,value
"CC(C)(C)c1ccc(OCCCN2CCCCC2)cc1 [DL76, 1-(3-(4-tert-butylphenoxy)propyl)piperidine]",type of hMAO B inhibition (reversible or irreversible),hMAO B,reversible
same,cell survival of H2O2-damaged SH-SY5Y cells (neuroprotection),[1]; 10 µM,no increase of cell survival
same,cell survival of H2O2-damaged SH-SY5Y cells (neuroprotection),[1]; 50 µM,no increase of cell survival
same,reduction of haloperidol-induced catalepsy,[2]; 25 mg/kg body weight,not reduced
same,"Times of Observation of Catalepsy (s), 0 min",[2]; 25 mg/kg i.p.,19.5 ± 4.2 s
same,"Times of Observation of Catalepsy (s), 3 min",[2]; 25 mg/kg i.p.,26.5 ± 3.5 s
same,"Times of Observation of Catalepsy (s), 6 min",[2]; 25 mg/kg i.p.,30.0 ± 0 s
same,duration of catalepsy (versus control 25.8),[2]; 50 mg/kg body weight,16.4
same,reduction of the duration of catalepsy compared to the control group,[2]; 50 mg/kg body weight,36.4%
same,"Times of Observation of Catalepsy (s), 0 min",[2]; 50 mg/kg i.p.,13.8 ± 5.9 s
same,"Times of Observation of Catalepsy (s), 3 min",[2]; 50 mg/kg i.p.,13.5 ± 4.2 s
same,"Times of Observation of Catalepsy (s), 6 min",[2]; 50 mg/kg i.p.,22.0 ± 5.0 s
